Results reported in patent US12012392B2, “Sulfonamide carboxamide compounds” (Inflazome Limited, priority 2017, dated 2024).

Test system: not listed separately
Assay: PK protocol (intravenous and oral administration)
Format: in vivo, male Sprague Dawley rats
Settings: male, Sprague Dawley, plasma; rat, intravenous, dose 1 mg/kg
Method: Pharmacokinetic parameters were determined in male Sprague Dawley rats (Charles River, UK, 250-350 g; or Vital River Laboratory Animal Technology Co Ltd, Beijing, China, 7-9 weeks old). Animals were individually housed during the study and maintained under a 12 h light/dark cycle. Animals had free access to food and water except that some orally dosed animals were food deprived overnight prior to the study. For intravenous administration, compounds were formulated as a solution in water or DMSO:PBS [10:90] in 2 mL/kg dosing volume and administered via tail vein. For oral administration, compounds were formulated as a solution in water or DMSO:water [10:90] in 5 mL/kg dosing volume and administered orally.
Serial blood samples (about 120-300 μL) were taken from each animal at each of 8 time-points post dose (0.083, 0.25, 0.5, 1, 2, 4, 8 and 24 h) or at each of 12 time-points post dose (0.03, 0.1, 0.17, 0.25, 0.5, 1, 2, 4, 6, 8, 12 and 24 h) or pre-dose and at each of 9 time-points post dose (0.25, 0.5, 1, 2, 4, 6, 8, 12 and 24 h). Samples were held on ice for no longer than 30 minutes before centrifugation (10,000 rpm (8,385 g) for 3 minutes; or 5,696 rpm (3,000 g) for 15 minutes) for plasma generation. Plasma was frozen on dry ice prior to bioanalysis. PK parameters were generated from LC-MS/MS data using Dotmatics or Phoenix WinNonlin 6.3 software.

| AUC [ng·h/mL] | clearance [mL/min/kg] | half-life [h] | SMILES |
| --- | --- | --- | --- |
| 2070 | 8.1 | 14.2 | CN(CCO)Cc1cc(S(=O)(=O)NC(=O)Nc2c3c(cc4c2CCC4)CCC3)nn1C [Example 77, N-((1,2,3,5,6,7-Hexahydro-s-indacen-4-yl)carbamoyl)-5-(((2-hydroxyethyl)(methyl)amino)methyl)-1-methyl-1H-pyrazole-3-sulfonamide] |
| 611 | 27.8 | 1.2 | CC(C)(O)c1coc(S(=O)(=O)NC(=O)Nc2c3c(cc4c2CCC4)CCC3)c1 [MCC950, reference compound] |

Same assay, conditions: male, Sprague Dawley, plasma; rat, intravenous, dose 1 mg/kg; read-out: Vdss

| Vd [L/kg] | SMILES |
| --- | --- |
| 1.9 | CN(CCO)Cc1cc(S(=O)(=O)NC(=O)Nc2c3c(cc4c2CCC4)CCC3)nn1C [Example 77, N-((1,2,3,5,6,7-Hexahydro-s-indacen-4-yl)carbamoyl)-5-(((2-hydroxyethyl)(methyl)amino)methyl)-1-methyl-1H-pyrazole-3-sulfonamide] |
| 0.53 | CC(C)(O)c1coc(S(=O)(=O)NC(=O)Nc2c3c(cc4c2CCC4)CCC3)c1 [MCC950, reference compound] |

Same assay, conditions: male, Sprague Dawley, plasma; rat, intravenous, dose 2.41 mg/kg

| AUC [ng·h/mL] | clearance [mL/min/kg] | half-life [h] | SMILES |
| --- | --- | --- | --- |
| 787 | 114 | 0.3 | CN(CCO)C(=O)c1cc(S(=O)(=O)NC(=O)Nc2c3c(cc4c2CCC4)CCC3)nn1C [Example 59, 3-(N-((1,2,3,5,6,7-Hexahydro-s-indacen-4-yl)carbamoyl)sulfamoyl)-N-(2-hydroxyethyl)-N,1-dimethyl-1H-pyrazole-5-carboxamide] |

Same assay, conditions: male, Sprague Dawley, plasma; rat, intravenous, dose 2.41 mg/kg; read-out: Vdss

| Vd [L/kg] | SMILES |
| --- | --- |
| 2.37 | CN(CCO)C(=O)c1cc(S(=O)(=O)NC(=O)Nc2c3c(cc4c2CCC4)CCC3)nn1C [Example 59, 3-(N-((1,2,3,5,6,7-Hexahydro-s-indacen-4-yl)carbamoyl)sulfamoyl)-N-(2-hydroxyethyl)-N,1-dimethyl-1H-pyrazole-5-carboxamide] |

Biological target: NLRP3 (Homo sapiens, UniProt Q96P20)
Sequence (Q96P20 whole entry): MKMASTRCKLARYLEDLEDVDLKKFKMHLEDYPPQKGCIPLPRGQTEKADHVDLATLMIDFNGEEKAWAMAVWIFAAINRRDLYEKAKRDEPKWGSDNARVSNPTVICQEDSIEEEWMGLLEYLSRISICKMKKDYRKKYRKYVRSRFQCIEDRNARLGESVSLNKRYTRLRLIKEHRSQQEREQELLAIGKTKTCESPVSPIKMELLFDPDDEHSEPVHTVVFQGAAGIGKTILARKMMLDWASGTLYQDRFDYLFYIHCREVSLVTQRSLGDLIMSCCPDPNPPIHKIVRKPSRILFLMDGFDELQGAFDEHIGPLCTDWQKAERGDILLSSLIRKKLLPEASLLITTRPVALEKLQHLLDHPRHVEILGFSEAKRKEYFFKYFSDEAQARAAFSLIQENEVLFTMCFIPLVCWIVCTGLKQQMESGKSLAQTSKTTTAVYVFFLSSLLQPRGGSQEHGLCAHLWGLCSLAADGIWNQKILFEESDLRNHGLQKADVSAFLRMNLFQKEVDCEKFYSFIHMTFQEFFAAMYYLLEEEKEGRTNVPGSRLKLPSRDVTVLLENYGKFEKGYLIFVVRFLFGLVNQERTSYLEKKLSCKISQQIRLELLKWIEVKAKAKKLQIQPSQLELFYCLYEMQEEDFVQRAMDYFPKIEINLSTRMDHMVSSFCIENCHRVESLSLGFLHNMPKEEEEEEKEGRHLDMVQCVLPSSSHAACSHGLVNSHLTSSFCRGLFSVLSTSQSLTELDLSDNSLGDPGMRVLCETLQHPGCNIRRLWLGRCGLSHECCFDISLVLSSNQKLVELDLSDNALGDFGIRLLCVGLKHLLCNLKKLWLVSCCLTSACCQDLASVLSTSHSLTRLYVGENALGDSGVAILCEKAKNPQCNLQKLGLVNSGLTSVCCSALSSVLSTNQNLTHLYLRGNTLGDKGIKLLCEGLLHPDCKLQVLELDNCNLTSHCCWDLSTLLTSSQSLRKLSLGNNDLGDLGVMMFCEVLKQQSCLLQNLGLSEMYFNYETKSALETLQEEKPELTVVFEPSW
Assay: THP-1 cells pyroptosis assay
Format: cell-based
Set-up: Seed THP-1 cells (25,000 cells/well) containing 1.0 μg/ml LPS; host or cells: THP-1 cells, LPS-primed, nigericin-stimulated
Settings: LPS 1 μg/ml, nigericin 5 μM, resazurin read-out
Method: THP-1 cells (ATCC #TIB-202) were grown in RPMI containing L-glutamine (Gibco #11835) supplemented with 1 mM sodium pyruvate (Sigma #S8636) and penicillin (100 units/ml)/streptomycin (0.1 mg/ml) (Sigma #P4333) in 10% Fetal Bovine Serum (FBS) (Sigma #F0804). The cells were routinely passaged and grown to confluency (˜10^6 cells/ml). On the day of the experiment, THP-1 cells were harvested and resuspended into RPMI medium (without FBS). The cells were then counted and viability (>90%) checked by Trypan blue (Sigma #T8154). Appropriate dilutions were made to give a concentration of 625,000 cells/ml. To this diluted cell solution was added LPS (Sigma #L4524) to give a 1 μg/ml Final Assay Concentration (FAC). 40 μl of the final preparation was aliquoted into each well of a 96-well plate. The plate thus prepared was used for compound screening.
The following method step-by-step assay was followed for compound screening. • 1. Seed THP-1 cells (25,000 cells/well) containing 1.0 μg/ml LPS in 40 μl of RPMI medium (without FBS) in 96-well, black walled, clear bottom cell culture plates coated with poly-D-lysine (VWR #734-0317) • 2. Add 5 μl compound (8 points half-log dilution, with 10 μM top dose) or vehicle (DMSO 0.1% FAC) to the appropriate wells • 3. Incubate for 3 hrs at 37° C. and 5% CO2 • 4. Add 5 μl nigericin (Sigma #N7143) (FAC 5 μM) to all wells • 5. Incubate for 1 hr at 37° C. and 5% CO2 • 6. At the end of the incubation period, spin plates at 300×g for 3 mins and remove supernatant • 7. Then add 50 μl of resazurin (Sigma #R7017) (FAC 100 μM resazurin in RPMI medium without FBS) and incubate plates for a further 1-2 hrs at 37° C. and 5% CO2 • 8. Plates were read in an Envision reader at Ex 560 nm and Em 590 nm • 9. IC50 data is fitted to a non-linear regression equation (log inhibitor vs response-variable slope 4-parameters) 96-Well Plate Map

| SMILES | IC50 [µM] |
| --- | --- |
| CC(C)c1cc(F)cc(C(C)C)c1NC(=O)NS(=O)(=O)c1ccn(C[C@@H](C)O)n1 [Example 27, (R)—N-((4-Fluoro-2,6-diisopropylphenyl)carbamoyl)-1-(2-hydroxypropyl)-1H-pyrazole-3-sulfonamide] | 0.64 to 2.56 |
| Cn1nc(S(=O)(=O)NC(=O)Nc2c3c(cc4c2CCC4)CCC3)cc1C(=O)N1CCC(O)CC1 [Example 70, N-((1,2,3,5,6,7-Hexahydro-s-indacen-4-yl)carbamoyl)-5-(4-hydroxypiperidine-1-carbonyl)-1-methyl-1H-pyrazole-3-sulfonamide] | 2.56 to 10 |
| Cn1nc(S(=O)(=O)NC(=O)Nc2c3c(cc4c2CCC4)CCC3)cc1C(=O)N1CCOCC1 [Example 74, N-((1,2,3,5,6,7-Hexahydro-s-indacen-4-yl)carbamoyl)-1-methyl-5-(morpholine-4-carbonyl)-1H-pyrazole-3-sulfonamide] | 0.64 to 2.56 |
| CC(C)c1cc(F)cc(C(C)C)c1NC(=O)NS(=O)(=O)c1cc(C2(O)CCOCC2)n(C)n1 [Example 54, N-((4-Fluoro-2,6-diisopropylphenyl)carbamoyl)-5-(4-hydroxytetrahydro-2H-pyran-4-yl)-1-methyl-1H-pyrazole-3-sulfonamide] | 0.64 to 2.56 |
| CC(C)c1cccc(C(C)C)c1NC(=O)NS(=O)(=O)c1cc(C(=O)N2CCOCC2)n(C)n1 [Example 67, N-((2,6-Diisopropylphenyl)carbamoyl)-1-methyl-5-(morpholine-4-carbonyl)-1H-pyrazole-3-sulfonamide] | 0.64 to 2.56 |
| COCCN(CCOC)C(=O)c1cc(S(=O)(=O)NC(=O)Nc2c(C(C)C)cccc2C(C)C)nn1C [Example 69, 3-(N-((2,6-Diisopropylphenyl)carbamoyl)sulfamoyl)-N,N-bis(2-methoxyethyl)-1-methyl-1H-pyrazole-5-carboxamide] | 2.56 to 10 |
| COCCN(C)C(=O)c1cc(S(=O)(=O)NC(=O)Nc2c(C(C)C)cccc2C(C)C)nn1C [Example 68, 3-(N-((2,6-Diisopropylphenyl)carbamoyl)sulfamoyl)-N-(2-methoxyethyl)-N,1-dimethyl-1H-pyrazole-5-carboxamide] | 2.56 to 10 |
| CN(C(=O)c1cc(S(=O)(=O)NC(=O)Nc2c3c(cc4c2CCC4)CCC3)nn1C)C1COC1 [Example 63, 3-(N-((1,2,3,5,6,7-Hexahydro-s-indacen-4-yl)carbamoyl)sulfamoyl)-N,1-dimethyl-N-(oxetan-3-yl)-1H-pyrazole-5-carboxamide] | 0.64 to 2.56 |
| CN(C(=O)c1cc(S(=O)(=O)NC(=O)Nc2c3c(cc4c2CCC4)CCC3)nn1C)C1CCOCC1 [Example 60, 3-(N-((1,2,3,5,6,7-Hexahydro-s-indacen-4-yl)carbamoyl)sulfamoyl)-N,1-dimethyl-N-(tetrahydro-2H-pyran-4-yl)-1H-pyrazole-5-carboxamide] | 2.56 to 10 |
| COC1(c2cc(S(=O)(=O)NC(=O)Nc3c(C(C)C)cc(F)cc3C(C)C)nn2C)COC1 [Example 52, N-((4-Fluoro-2,6-diisopropylphenyl)carbamoyl)-5-(3-methoxyoxetan-3-yl)-1-methyl-1H-pyrazole-3-sulfonamide] | 0.16 to 0.64 |
| CC(C)c1cc(F)cc(C(C)C)c1NC(=O)NS(=O)(=O)c1cc(C2(O)COC2)n(C(C)C)n1 [Example 43, N-((4-Fluoro-2,6-diisopropylphenyl)carbamoyl)-5-(3-hydroxyoxetan-3-yl)-1-isopropyl-1H-pyrazole-3-sulfonamide] | 0.64 to 2.56 |
| CCn1nc(S(=O)(=O)NC(=O)Nc2c(C(C)C)cc(F)cc2C(C)C)cc1C1(O)COC1 [Example 44, 1-Ethyl-N-((4-fluoro-2,6-diisopropylphenyl)carbamoyl)-5-(3-hydroxyoxetan-3-yl)-1H-pyrazole-3-sulfonamide] | 0.16 to 0.64 |
| CN(CC(O)CO)C(=O)c1cc(S(=O)(=O)NC(=O)Nc2c3c(cc4c2CCC4)CCC3)nn1C (stereo not drawn) [Example 65, N-(2,3-Dihydroxypropyl)-3-(N-((1,2,3,5,6,7-hexahydro-s-indacen-4-yl)carbamoyl)sulfamoyl)-N,1-dimethyl-1H-pyrazole-5-carboxamide] | 0.64 to 2.56 |
| CN(CCO)C(=O)c1cc(S(=O)(=O)NC(=O)Nc2c3c(cc4c2CCC4)CCC3)nn1C [Example 59, 3-(N-((1,2,3,5,6,7-Hexahydro-s-indacen-4-yl)carbamoyl)sulfamoyl)-N-(2-hydroxyethyl)-N,1-dimethyl-1H-pyrazole-5-carboxamide] | 0.04 to 0.16 |
| COC1CCN(C(=O)c2cc(S(=O)(=O)NC(=O)Nc3c4c(cc5c3CCC5)CCC4)nn2C)C1 (stereo not drawn) [Example 71, N-((1,2,3,5,6,7-Hexahydro-s-indacen-4-yl)carbamoyl)-5-(3-methoxypyrrolidine-1-carbonyl)-1-methyl-1H-pyrazole-3-sulfonamide] | 2.56 to 10 |

The next lines start with the values.

| IC50 [µM] | SMILES |
| --- | --- |
| 2.56 to 10 | Cn1nc(S(=O)(=O)NC(=O)Nc2c3c(cc4c2CCC4)CCC3)cc1C(=O)NCCO [Example 84, 3-(N-((1,2,3,5,6,7-Hexahydro-s-indacen-4-yl)carbamoyl)sulfamoyl)-N-(2-hydroxyethyl)-1-methyl-1H-pyrazole-5-carboxamide] |
| 2.56 to 10 | COCCNC(=O)c1cc(S(=O)(=O)NC(=O)Nc2c3c(cc4c2CCC4)CCC3)nn1C [Example 85, 3-(N-((1,2,3,5,6,7-Hexahydro-s-indacen-4-yl)carbamoyl)sulfamoyl)-N-(2-methoxyethyl)-1-methyl-1H-pyrazole-5-carboxamide] |
| 0.64 to 2.56 | CC(C)c1cccc(C(C)C)c1NC(=O)NS(=O)(=O)c1cc(C(=O)N(C)CCO)n(C)n1 [Example 83, 3-(N-((2,6-Diisopropylphenyl)carbamoyl)sulfamoyl)-N-(2-hydroxyethyl)-N,1-dimethyl-1H-pyrazole-5-carboxamide] |
| 0.16 to 0.64 | O=C(Nc1c2c(cc3c1CCC3)CCC2)NS(=O)(=O)c1ccn(C2COCC2O)n1 (stereo not drawn) [Example 105] |
| 0.64 to 2.56 | C[C@@H](O)Cn1cc(S(=O)(=O)NC(=O)Nc2c3c(cc4c2CCC4)CCC3)cn1 [Example 89, (R)—N-((1,2,3,5,6,7-Hexahydro-s-indacen-4-yl)carbamoyl)-1-(2-hydroxypropyl)-1H-pyrazole-4-sulfonamide] |
| 2.56 to 10 | O=C(Nc1c2c(cc3c1CCC3)CCC2)NS(=O)(=O)c1cnn(C2CCOCC2)c1 [Example 99] |
| 0.64 to 2.56 | COCCn1cc(S(=O)(=O)NC(=O)Nc2c3c(cc4c2CCC4)CCC3)cn1 [Example 101] |
| 0.64 to 2.56 | O=C(Nc1c2c(cc3c1CCC3)CCC2)NS(=O)(=O)c1cnn(C2CCOC2)c1 (stereo not drawn) [Example 100] |
| 0.64 to 2.56 | CC(C)(O)Cn1cc(S(=O)(=O)NC(=O)Nc2c3c(cc4c2CCC4)CCC3)cn1 [Example 88, N-((1,2,3,5,6,7-Hexahydro-s-indacen-4-yl)carbamoyl)-1-(2-hydroxy-2-methylpropyl)-1H-pyrazole-4-sulfonamide] |
